These results are taken from patent US20100022568A1, “ENDOTHELIN RECEPTOR ANTAGONISTS FOR EARLY STAGE IDIOPATHIC PULMONARY FIBROSIS” (Actelion Pharmaceeuticals Ltd., priority 2006, published 2010).

The test system of experiment [1] is Swiss 3T3 mouse embryonic fibroblasts. The experiment in a line: cells. On the procedure: Experiments were performed on the mouse embryonic fibroblast cell line Swiss 3T3 (Deutsche Sammlung fur Mikroorganismen und Zellen, DSMZ ACC 173). Cells were starved for 24 h in serum-free medium or medium containing 0.5% serum followed by a 24 h incubation with endothelin-1 at a concentration giving approximately 50% or preferably 80% of its maximal efficacy, in presence either of vehicle or of an antagonist at increasing concentrations or an antagonist in combination with Pirfenidone.
Potential cytotoxic effects are excluded by assessing fibroblast proliferation using the MTS reagent (21). Collagen neo-synthesis by fibroblasts is assessed by measuring ^3H-proline incorporation (22).
Using a concentration of ET-1 of 1 nM (EC80), the below mentioned endothelin receptor antagonists were analyzed for antagonistic activity on ET-1-induced collagen neo-synthesis.

In another experiment the test system is rat mesangial cells. Particulars: cited from earlier work.
The test system of a further experiment is human fibroblasts. Particulars: cited from earlier work.
In a further experiment the test system is cell cultures. Particulars: cited from earlier work.
The test system of another experiment is patients with IPF. Kind of experiment: BUILD-1 clinical study (phase II/III, placebo-controlled) in IPF patients. In kind it is in vivo, human. From the text: BUILD 1 study was a multicentric, randomized, double-blind, placebo-controlled, phase II/III study in IPF patients. […] Treatment failure was defined either as worsening of PFTs or the occurrence of an acute decompensation of IPF. PFT worsening was defined as 2 out of the following 3 criteria • Decrease from baseline ≧10% in Forced vital capacity (FVC) • Decrease from baseline ≧15% in diffusion capacity for carbon monoxide (DLCO). • Decrease from baseline ≧4% in O2 saturation (blood gas) at rest or increase from baseline ≧8 mmHg in alveolar capillary O2 gradient (A-a PO2).
Main inclusion criteria: proven IPF diagnosis <3 years duration, either via a surgical lung biopsy or when not done according to the ATS/ERS consensus criteria (see above). The main inclusion criteria were the presence of FVC ≧50% of predicted value and DLCO ≧30% of predicted value.
The planned treatment period 1 was 12 months. Patients were evaluated at regular interval up to End-of-Period 1 (Month 12 months) and up to the End-of-Study i.e. when the last patient has his/her last visit. The 6MWT and pulmonary function tests were evaluated at each visit.
The analyses were run by a single radiologist who was blinded to the group allocation. Each patient CT was scored for honeycomb as well as ground-glass from the 3 zones of each lung namely upper mid and lower zone. Increment for HC and ground-glass was rounded to the upper 5%.

The test system of experiment [2] is various animal models of fibrosis. Particulars: cited from earlier work.
Experiment [3] has as its system norepinephrine-induced aortic remodeling and fibrosis. The following applies: cited from earlier work.
A further experiment concerns diabetic rat kidney. The following applies: cited from earlier work.
Setting [4] is: Mus musculus, Swiss-3T3, read-out: IC50 on ET-1-induced collagen neo-synthesis in 3T3 fibroblasts.
[5] abbreviates: patients with surgical lung biopsy, N = 49.

Entries after “also recorded” stand apart in the source; their conditions may differ. Where two headings read alike, the source gives them in different places. Square brackets hold non-standard residues; d marks the D form. Peptide text beside a SMILES is read from it.

One may read the IC50 as the concentration that gives 50% inhibition.

As for `COC(c1ccccc1)(c1ccccc1)[C@H](Oc1nc(C)cc(C)n1)C(=O)O` [Ambrisentan], in experiment [1] (setting [4]), the IC50 was 79 nM.

On to `COc1ccccc1Oc1c(NS(=O)(=O)c2ccc(C)cn2)nc(-c2ccncc2)nc1OC` [Avosentan], for which the IC50 in experiment [1] (setting [4]) was found to be 330 nM.

Consider `CC(C)C[C@@H]1NC(=O)[C@@H](C(C)C)NC(=O)[C@@H]2CCCN2C(=O)[C@@H](CC(=O)O)NC(=O)[C@@H](Cc2c[nH]c3ccccc23)NC1=O` [BQ-123] (cyclo(L[dW][dD]P[dV])), for which the “Fibronectin synthesis induced by ET-1 or angiotensin II” value with rat mesangial cells is given as “decreased”.

In the case of `COc1ccccc1Oc1c(NS(=O)(=O)c2ccc(C(C)(C)C)cc2)nc(-c2ncccn2)nc1OCCO` [Bosentan], in the experiment on human fibroblasts (cell cultures), the “Ability to contract a collagen matrix” value is listed as “reduced” and the “Matrix metalloprotease-1 (collagenase) production” value is recorded as “increased”. In the experiment on human fibroblasts (human fibroblasts), the “Fibroblast proliferation induced by ET-1” value is “attenuated”. Besides, the IC50 in experiment [1] (setting [4]) stood at 214 nM. For the same compound, the “Effect on ET-1-induced collagen synthesis” value in experiment [1] (bosentan 1 μM alone, 24 h) is reported as “reverses ET-1 -induced collagen synthesis to baseline”. Besides, in the experiment with cell cultures, the Collagen synthesis result is recorded as “decreases”, the Collagenase expression result is recorded as “increases”, the Extracellular matrix deposition entry was “inhibits” and the NF-κB expression result is “reduces”. For the same compound, the “Secondary endpoints related to death or disease worsening” value in the experiment on patients with IPF (BUILD-1, IPF patients) is reported as “showed efficacy”. Besides, the “PFT score: occurrence of death or treatment failure at End-of-Period 1” value with patients with IPF (all treated (n=71 bosentan), placebo 36.1%) is on record as 22.5%. Also, in the experiment with patients with IPF (all treated, bosentan target 125 mg b.i.d., 12 months), the “Primary endpoint: exercise capacity (6MWT) at End-of-Period 1” value is recorded as “did not show an effect; also recorded: did not show improvement”. Moreover, in the experiment on patients with IPF (setting [5]), the “PFTs scores at end of period 1: Improved (number of patients)” value is recorded as 2 and the “PFTs scores at end of period 1: Worsened (number of patients)” value came out at 6. Besides, the “PFTs scores at end of period 1: Improved (percent of patients)” value in the experiment with patients with IPF (patients with surgical lung biopsy, N = 49, 95% CL 0.5%, 14.0%, p 0.2424) came to 4.1%. Further, in the experiment on patients with IPF (patients with surgical lung biopsy, N = 49, 95% CL 4.6%, 24.8%), the “PFTs scores at end of period 1: Worsened (percent of patients)” value came out at 12.2%. Further, the “Prevention of clinical worsening in IPF patients with early disease with low or no honeycomb on HRCT lung scans” value with patients with IPF (post hoc analysis of BUILD 1 HRCT scans) is recorded as “mainly effective”. In addition, in experiment [2], the “Anti-fibrotic activity in vivo” value is reported as “potent anti-fibrotic agent”.

As to `CCCNS(=O)(=O)Nc1ncnc(OCCOc2ncc(Br)cn2)c1-c1ccc(Br)cc1` [Compound 1, propyl-sulfamic acid {5-(4-bromo-phenyl)-6-[2-(5-bromo-pyrimidin-2-yloxy)-ethoxy]-pyrimidine-4-yl}-amide], the 50% inhibitory concentration (IC50) in experiment [1] (setting [4]) was found to be 114 nM.

Regarding `COc1cc(OC)nc(O[C@H](C(=O)O)C(OC)(c2ccccc2)c2ccccc2)n1` [Darusentan], in experiment [1] (setting [4]), the concentration for half-maximal inhibition (IC50) was determined as 221 nM. The Accumulation of collagen result in experiment [3] is on record as “decreased”.

Regarding `CC[C@H](C)[C@H](NC(=O)[C@H](CC(=O)O)NC(=O)[C@H](CC(C)C)NC(=O)[C@H](Cc1c[nH]cn1)NC(=O)[C@@H]1CSSC[C@H](N)C(=O)N[C@@H](CO)C(=O)N[C@H]2CSSC[C@H](NC(=O)[C@H](CCC(=O)O)NC(=O)[C@H](CCCCN)NC(=O)[C@H](CC(=O)O)NC(=O)[C@H](CCSC)NC(=O)[C@H](CC(C)C)NC(=O)[C@H](CO)NC(=O)[C@H](CO)NC2=O)C(=O)N[C@@H](C(C)C)C(=O)N[C@@H](Cc2ccc(O)cc2)C(=O)N[C@@H](Cc2ccccc2)C(=O)N1)C(=O)N[C@H](C(=O)N[C@@H](Cc1c[nH]c2ccccc12)C(=O)O)[C@@H](C)CC` [ET-1, endothelin-1], in experiment [1] (read-out: EC50 (concentration of ET-1 giving 50% of maximal effect) on collagen neo-synthesis, Swiss 3T3 fibroblasts, 24 h incubation), the EC50 turned out to be 0.24 nM.

As for `CC(C)C[C@H](NC(=O)N1CCCCCC1)C(=O)N[C@H](Cc1cn(C)c2ccccc12)C(=O)N[C@H](Cc1ccccn1)C(=O)O` [FR1 39317], the “Expression of collagen, laminin and TGF-β mRNA” value in the experiment with diabetic rat kidney is given as “attenuated”.

`Cc1cc2c(cc1CC(=O)c1sccc1S(=O)(=O)Nc1onc(C)c1Cl)OCO2` [Sitaxsentan]: the concentration for half-maximal inhibition (IC50) in experiment [1] (setting [4]) came out at 369 nM.

Turning to `CC(=O)c1cc(C)cc(C)c1NC(=O)c1sccc1S(=O)(=O)Nc1onc(C)c1C` [TBC3711], the IC50 in experiment [1] (read-out: IC50 on ET-1-induced collagen neo-synthesis in 3T3 fibroblasts, ET-1 1 nM (EC80), n >= 2) came out at 59 nM.

Take `Cc1ccc(=O)n(-c2ccccc2)c1` [pirfenidone]: in experiment [1] (Mus musculus, Swiss-3T3, 24 h, read-out: Inhibitory effect on collagen neo-synthesis), the inhibition at 1000 µM came out at 55%.
